Assay results taken from patent publication US20230227466A1, “SUBSTITUTED THIENOPYRIMIDINES THAT INTERACT WITH THE RAS SUPERFAMILY FOR THE TREATMENT OF CANCERS, INFLAMMATORY DISEASES, RASOPATHIES, AND FIBROTIC DISEASE” (SHY Therapeutics, LLC, priority 2020, published 2023).
Like-named read-outs stand apart in the source and are kept apart here.

Legend:
KRas G12C mutant = target: T1, KRas G12C mutant (Homo sapiens, UniProt P01116, G12C); assay: Ras GTP binding domain inhibition assay (labeled-GTP competition, cell-free)
T1 construct: made in house
Method in brief: (§1)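 Labeled-GTP competition read out as bound Cy3/Cy5-GTP fluorescence after washes, with 100 nM tracer for 45 min at RT. Before tracer, compounds at 20 μM, or a dilution series for IC50, sat 3 h at RT on the Ni-immobilized His-tagged GTPase. Sos GEF (10-30 μg/mL) was optionally present for the last hour.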

KRas G12D mutant = target: T2, KRas G12D mutant (Homo sapiens, UniProt P01116, G12D); assay: as above
T2 construct: made in house
Method in brief: as §1

KRas Q61H mutant = target: T3, KRas Q61H mutant (Homo sapiens, UniProt P01116, Q61H); assay: as above; details: at 20 μM
T3 construct: made in house
Method in brief: as §1

[1] = test system: MIA-PaCa-2 pancreatic cancer cell line (KRAS G12C); assay: Cell proliferation assay (CellTiter 96 Aqueous One); type: cell-based; details: Homo sapiens; for inhibition at 10 µM: MIA PaCa-2, read-out: % inh cell proliferation (10 μM) in MIA PaCa-2
Method in brief: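 Read-out is MTS-based viability (CellTiter 96 Aqueous One) after 2–4 days of compound exposure at 37 °C in 10% FBS with 0.3% DMSO.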

KRas wild type = KRas wild type (Homo sapiens, UniProt P01116); assay: Ras GTP binding domain inhibition assay (labeled-GTP competition, cell-free); design: made in house
Method in brief: as §1

Rac-1 = Rac-1 (Homo sapiens, UniProt P63000); assay: as above; design: made in house
Method in brief: as §1

Rho-A = Rho-A (Homo sapiens, UniProt P61586); assay: as above; design: made in house
Method in brief: as §1

[2] = with SOS, read-out: KRas G12C mutant + SOS: % inh.
[3] = without SOS, read-out: KRas G12C mutant: % inh.
[4] = with SOS, read-out: KRas G12D mutant + SOS: % inh.
[5] = without SOS, read-out: KRas G12D mutant: % inh.
[6] = with SOS, read-out: KRas Q61H mutant + SOS: % inh.
[7] = without SOS, read-out: KRas Q61H mutant: % inh.
[8] = with SOS, read-out: KRas wild type + SOS: % inh.
[9] = without SOS, read-out: KRas wild type: % inh.
[10] = with SOS, read-out: Rac-1 + SOS: % inh.
[11] = without SOS, read-out: Rac-1: % inh.
[12] = with SOS, read-out: Rho-A + SOS: % inh.
[13] = without SOS, read-out: Rho-A: % inh.
[14] = MIA PaCa-2, MIA-PaCa-2, 2-4 days, 10% FBS

Row | SMILES | inhibition at 20 µM (KRas G12C mutant; [2]) [%] | inhibition at 20 µM (KRas G12C mutant; [3]) [%] | inhibition at 20 µM (KRas G12D mutant; [4]) [%] | inhibition at 20 µM (KRas G12D mutant; [5]) [%] | inhibition at 20 µM (KRas Q61H mutant; [6]) [%] | inhibition at 20 µM (KRas Q61H mutant; [7]) [%] | IC50 ([1]; MIA PaCa-2, MIA PaCa-2) [µM] | inhibition at 10 µM [1] [%] | inhibition at 20 µM (KRas wild type; [8]) [%] | inhibition at 20 µM (KRas wild type; [9]) [%] | inhibition at 20 µM (Rac-1; [10]) [%] | inhibition at 20 µM (Rac-1; [11]) [%] | inhibition at 20 µM (Rho-A; [12]) [%] | inhibition at 20 µM (Rho-A; [13]) [%] | IC50 [1, 14] [µM]
1 | CO[C@@H]1CC[C@@H](Nc2nc(-c3nccn3C)nc3sc(-c4ccn(C(C)C)n4)c(C)c23)C1 (racemic) [Compound 33, rac-6-(1-Isopropyl-1H-pyrazol-3-yl)-N-((1R,3R)-3-methoxycyclopentyl)-5-methyl-2-(1-methyl-1H-imidazol-2-yl)thieno[2,3-d]pyrimidin-4-amine] | 76 to 100 | 76 to 100 | 76 to 100 | 51 to 75 | 76 to 100 | 76 to 100 | 1 to 4.99 | 76 to 100 | 76 to 100 | 76 to 100 | 51 to 75 | 51 to 75 | 76 to 100 | 76 to 100 | –
2 | COC1CCN(c2nc(-c3nccn3C)nc3sc(-c4ccn(C(C)C)n4)c(C)c23)C1 (racemic) [Compound 34, rac-6-(1-Isopropyl-1H-pyrazol-3-yl)-4-(3-methoxypyrrolidin-1-yl)-5-methyl-2-(1-methyl-1H-imidazol-2-yl)thieno[2,3-d]pyrimidine] | 76 to 100 | 76 to 100 | 76 to 100 | 76 to 100 | 76 to 100 | 76 to 100 | 1 to 4.99 | 76 to 100 | 76 to 100 | 76 to 100 | 76 to 100 | 76 to 100 | 76 to 100 | 76 to 100 | –
3 | Cc1c(-c2ccn(C(C)C)n2)sc2nc(-c3nccn3C)nc(NC3CCOC3)c12 (racemic) [Compound 37, rac-6-(1-Isopropyl-1H-pyrazol-3-yl)-5-methyl-2-(1-methyl-1H-imidazol-2-yl)-N-(tetrahydrofuran-3-yl)thieno[2,3-d]pyrimidin-4-amine] | 76 to 100 | 76 to 100 | 76 to 100 | 76 to 100 | 76 to 100 | 76 to 100 | 5 to 10 | 51 to 75 | 76 to 100 | 76 to 100 | 76 to 100 | 76 to 100 | 76 to 100 | 76 to 100 | –
4 | COCC1CCN(c2nc(-c3nccn3C)nc3sc(-c4ccn(C(C)C)n4)c(C)c23)C1 (racemic) [Compound 38, rac-6-(1-Isopropyl-1H-pyrazol-3-yl)-4-(3-(methoxymethyl)pyrrolidin-1-yl)-5-methyl-2-(1-methyl-1H-imidazol-2-yl)thieno[2,3-d]pyrimidine] | 76 to 100 | 51 to 75 | 76 to 100 | 51 to 75 | 76 to 100 | 76 to 100 | 1 to 4.99 | 76 to 100 | 76 to 100 | 76 to 100 | 76 to 100 | 76 to 100 | 76 to 100 | 76 to 100 | 0.75 to 1
5 | COC1CCCN(c2nc(-c3nccn3C)nc3sc(-c4ccn(C(C)C)n4)c(C)c23)C1 (racemic) [Compound 40, rac-6-(1-Isopropyl-1H-pyrazol-3-yl)-4-(3-methoxypiperidin-1-yl)-5-methyl-2-(1-methyl-1H-imidazol-2-yl)thieno[2,3-d]pyrimidine] | 76 to 100 | 51 to 75 | 26 to 50 | 26 to 50 | 76 to 100 | 51 to 75 | < 1 | 76 to 100 | 76 to 100 | 76 to 100 | 51 to 75 | 51 to 75 | 76 to 100 | 76 to 100 | –
6 | COCC1COCCN1c1nc(-c2nccn2C)nc2sc(-c3ccn(C(C)C)n3)c(C)c12 (racemic) [Compound 41, rac-4-(6-(1-Isopropyl-1H-pyrazol-3-yl)-5-methyl-2-(1-methyl-1H-imidazol-2-yl)thieno[2,3-d]pyrimidin-4-yl)-3-(methoxymethyl)morpholine] | 51 to 75 | 51 to 75 | 26 to 50 | 0 | 26 to 50 | 51 to 75 | 5 to 10 | 51 to 75 | 51 to 75 | 51 to 75 | 76 to 100 | 76 to 100 | 76 to 100 | 51 to 75 | –
7 | CO[C@H]1CC(Nc2nc(-c3nccn3C)nc3sc(-c4ccn(C(C)C)n4)c(C)c23)C[C@@H]1OC (racemic) [Compound 44, rac-N-((3S,4S)-3,4-Dimethoxycyclopentyl)-6-(1-isopropyl-1H-pyrazol-3-yl)-5-methyl-2-(1-methyl-1H-imidazol-2-yl)thieno[2,3-d]pyrimidin-4-amine] | 76 to 100 | 76 to 100 | 76 to 100 | 51 to 75 | 76 to 100 | 76 to 100 | 1 to 4.99 | 76 to 100 | 76 to 100 | 76 to 100 | 76 to 100 | 76 to 100 | 76 to 100 | 76 to 100 | –
8 | COCC1CN(c2nc(-c3nccn3C)nc3sc(-c4ccn(C(C)C)n4)c(C)c23)CCO1 (racemic) [Compound 45, rac-4-(6-(1-Isopropyl-1H-pyrazol-3-yl)-5-methyl-2-(1-methyl-1H-imidazol-2-yl)thieno[2,3-d]pyrimidin-4-yl)-2-(methoxymethyl)morpholine] | 76 to 100 | 51 to 75 | 76 to 100 | 76 to 100 | 76 to 100 | 76 to 100 | 5 to 10 | 26 to 50 | 76 to 100 | 76 to 100 | 76 to 100 | 76 to 100 | 76 to 100 | 76 to 100 | –
9 | Cc1c(-c2ccn(C(C)C)n2)sc2nc(-c3nccn3C)nc(NCCC3CCC(=O)N3)c12 (racemic) [Compound 56, rac-5-(2-((6-(1-Isopropyl-1H-pyrazol-3-yl)-5-methyl-2-(1-methyl-1H-imidazol-2-yl)thieno[2,3-d]pyrimidin-4-yl)amino)ethyl)pyrrolidin-2-one] | 76 to 100 | 76 to 100 | 76 to 100 | 26 to 50 | 76 to 100 | 51 to 75 | > 10 | 1 to 25 | 76 to 100 | 76 to 100 | – | 76 to 100 | – | 76 to 100 | –
10 | Cc1c(-c2ccn(C(C)C)n2)sc2nc(-c3nccn3C)nc(N3CCC(COC(C)C)C3)c12 (racemic) [Compound 62, rac-4-(3-(Isopropoxymethyl)pyrrolidin-1-yl)-6-(1-isopropyl-1H-pyrazol-3-yl)-5-methyl-2-(1-methyl-1H-imidazol-2-yl)thieno[2,3-d]pyrimidine] | 51 to 75 | – | 51 to 75 | 26 to 50 | 51 to 75 | 76 to 100 | < 1 | 76 to 100 | 51 to 75 | 51 to 75 | – | 1 to 25 | – | 76 to 100 | –
11 | COC[C@@H]1CC[C@@H]1CNc1nc(-c2nccn2C)nc2sc(-c3ccn(C(C)C)n3)c(C)c12 (racemic) [Compound 63, rac-6-(1-Isopropyl-1H-pyrazol-3-y)-N-(((1S,2R)-2-(methoxymethyl)cyclobutyl)methyl)-5-methyl-2-(1-methyl-1H-imidazol-2-yl)thieno[2,3-d]pyrimidin-4-amine] | 26 to 50 | 26 to 50 | 51 to 75 | 51 to 75 | 26 to 50 | 51 to 75 | < 1 | 76 to 100 | 26 to 50 | 51 to 75 | – | 26 to 50 | – | 51 to 75 | < 0.4
